Laboratory results as given in patent US4870168A, “3-Unsaturated alkyl cephems from 3-triflyl cephems” (Bristol-Myers Company, priority 1987, dated 1989).
≈ marks a conversion by molar mass, not a printed value. Read-outs that look alike come from different tables or passages of the source.

Experiments:
Type in all cases: cell-based
[1] = tested on: S. pneumoniae; test: Antibacterial activity (MIC); conditions: Streptococcus pneumoniae
[2] = tested on: S. aureus /Pen. Res.; test: Antibacterial activity (MIC); conditions: Staphylococcus aureus
[3] = tested on: S. aureus /Meth. Res.; test: Antibacterial activity (MIC); conditions: Staphylococcus aureus
[4] = tested on: E. coli; test: Antibacterial activity (MIC); conditions: Escherichia coli
[5] = tested on: E. cloacae; test: Antibacterial activity (MIC); conditions: Enterobacter cloacae
[6] = tested on: S. faecalis; test: Antibacterial activity (MIC); conditions: Enterococcus faecalis
[7] = tested on: K. pneumoniae; test: Antibacterial activity (MIC); conditions: Klebsiella pneumoniae
[8] = tested on: S. aureus /50% serum; test: Antibacterial activity (MIC), 50% serum; conditions: Staphylococcus aureus
[9] = tested on: P. mirabilis; test: Antibacterial activity (MIC); conditions: Proteus mirabilis
[10] = tested on: S. aureus; test: Antibacterial activity (MIC); conditions: Staphylococcus aureus
[11] = tested on: S. pyogenes; test: Antibacterial activity (MIC); conditions: Streptococcus pyogenes
[12] = S. aureus /Pen. Res., read-out: MIC
[13] = S. aureus /Meth. Res., read-out: MIC

Row | Structure (SMILES) | MIC [1] [µg/mL] | MIC [2, 12] [µg/mL] | MIC [3, 13] [µg/mL] | MIC ([4]; first of two lines) [µg/mL] | MIC ([4]; second of two lines) [µg/mL] | MIC [5] [µg/mL] | MIC [6] [µg/mL] | MIC ([7]; first of two lines) [µg/mL] | MIC ([7]; second of two lines) [µg/mL] | MIC [8] [µg/mL] | MIC [9] [µg/mL] | MIC [10] [µg/mL] | MIC [11] [µg/mL] | MIC [2] [µg/mL] | MIC [3] [µg/mL]
1 | C/C=C\C1=C(C(=O)OC(c2ccccc2)c2ccccc2)N2C(=O)C(NC(=O)Cc3ccccc3)[C@H]2SC1 (some centres unmarked) [Ex. 1, Diphenylmethyl 7-phenylacetamido-3-(Z-1-propenyl)-3-cephem-4-carboxylate] | 0.03 (≈ 0.0572 µM) | 1 (≈ 1.91 µM) | > 125 | 1 (≈ 1.91 µM) | 4 (≈ 7.62 µM) | > 125 | 8 (≈ 15.2 µM) | 0.5 (≈ 0.953 µM) | 63 (≈ 120 µM) | 0.5 (≈ 0.953 µM) | 1 (≈ 1.91 µM) | 0.13 (≈ 0.248 µM) | 0.016 (≈ 0.0305 µM) | – | –
2 | CC#CC1=C(C(=O)OC(c2ccccc2)c2ccccc2)N2C(=O)C(NC(=O)Cc3ccccc3)[C@H]2SC1 (some centres unmarked) [Ex. 2, Diphenylmethyl 7-phenylacetamido-3-(1-propynyl)-3-cephem-4-carboxylate] | 8 (≈ 15.3 µM) | 8 (≈ 15.3 µM) | > 16 | 16 (≈ 30.6 µM) | 16 (≈ 30.6 µM) | > 16 | 16 (≈ 30.6 µM) | 16 (≈ 30.6 µM) | > 16 | > 16 | 16 (≈ 30.6 µM) | 4 (≈ 7.65 µM) | 4 (≈ 7.65 µM) | – | –
3 | CC(C)=CC1=C(C(=O)OC(c2ccccc2)c2ccccc2)N2C(=O)C(NC(=O)Cc3ccccc3)[C@H]2SC1 (some centres unmarked) [Ex. 3, Diphenylmethyl 7-phenylacetamido-3-(2-methyl-1-propenyl)-3-cephem-4-carboxylate] | 0.03 (≈ 0.0557 µM) | 0.5 (≈ 0.928 µM) | > 125 | 2 (≈ 3.71 µM) | 32 (≈ 59.4 µM) | 63 (≈ 117 µM) | 4 (≈ 7.43 µM) | 4 (≈ 7.43 µM) | > 125 | 0.06 (≈ 0.111 µM) | 4 (≈ 7.43 µM) | – | 0.03 (≈ 0.0557 µM) | – | –
4 | CC=C=CC1=C(C(=O)O)N2C(=O)C(NC(=O)[C@H](N)c3ccc(O)cc3)C2SC1 (some centres unmarked) [Ex. 14] | 2 (≈ 4.98 µM) | 63 (≈ 157 µM) | > 63 | > 63 | > 63 | > 63 | > 63 | > 63 | > 63 | 32 (≈ 79.7 µM) | 63 (≈ 157 µM) | 8 (≈ 19.9 µM) | 2 (≈ 4.98 µM) | – | –
5 | N[C@@H](C(=O)N[C@@H]1C(=O)N2C(C(=O)O)=C(Cl)CS[C@H]12)c1ccccc1 [CEFACLOR, reference compound] | 0.13 (≈ 0.353 µM) | – | – | 1 (≈ 2.72 µM) | 2 (≈ 5.44 µM) | > 125 | 32 (≈ 87 µM) | 0.5 (≈ 1.36 µM) | 63 (≈ 171 µM) | 1 (≈ 2.72 µM) | 2 (≈ 5.44 µM) | 0.25 (≈ 0.68 µM) | 0.13 (≈ 0.353 µM) | 1 (≈ 2.72 µM) | > 125
6 | CC1=C(C(=O)O)N2C(=O)[C@@H](NC(=O)[C@H](N)c3ccccc3)[C@H]2SC1 [CEPHALEXIN, reference compound] | 0.5 (≈ 1.44 µM) | – | – | 4 (≈ 11.5 µM) | 4 (≈ 11.5 µM) | > 125 | 63 (≈ 181 µM) | 4 (≈ 11.5 µM) | 63 (≈ 181 µM) | 1 (≈ 2.88 µM) | 4 (≈ 11.5 µM) | 0.5 (≈ 1.44 µM) | 0.25 (≈ 0.72 µM) | 8 (≈ 23 µM) | > 125
